Laboratory results reported in US6452014B1, “Telomerase inhibitors and methods of their use” (Geron Corporation, priority 2000, dated 2002).
Values joined by “and” are separate entries in the source; they are usually repeats but may differ in a detail not shown here. Equal values may be shown once.

Biological target: T1, partially purified telomerase from a nuclear extract of HEK293 cells (Homo sapiens, UniProt O14746)
T1 construct: partially purified telomerase from a nuclear extract of HEK293 cells; endogenous in cells; host or cells: HEK293 cells (nuclear extract, partially purified)
Assay: In vitro telomerase inhibition, membrane hybridization assay (method of U.S. Pat. No. 5,760,062)
Type: biochemical
Details: replicate determinations listed in one cell
Protocol: Alternatively, telomerase inhibitory activity of the compounds was measured in accordance with a known method (U.S. Pat. No. 5,760,062). That is, a dimethyl sulfoxide (DMSO) solution of each agent was mixed with partially purified telomerase from a nuclear extract of HEK293 cells and incubated in the presence of an oligodeoxynucleotide to be used as the substrate and deoxynucleotide triphosphate. The obtained reacted product (DNA having a telomere sequence) was adsorbed on a membrane, and hybridization was carried out using a labeled oligonucleotide probe having a sequence complementary to the telomere sequence. The inhibition ratio was calculated based on the ratio of the signal of label on the membrane in the presence of the agent to the signal of label in the absence of the agent (control). Also, concentration of each agent which inhibits 50% of the enzyme activity based on the control was used as IC50.

T1 sequence (O14746 whole entry): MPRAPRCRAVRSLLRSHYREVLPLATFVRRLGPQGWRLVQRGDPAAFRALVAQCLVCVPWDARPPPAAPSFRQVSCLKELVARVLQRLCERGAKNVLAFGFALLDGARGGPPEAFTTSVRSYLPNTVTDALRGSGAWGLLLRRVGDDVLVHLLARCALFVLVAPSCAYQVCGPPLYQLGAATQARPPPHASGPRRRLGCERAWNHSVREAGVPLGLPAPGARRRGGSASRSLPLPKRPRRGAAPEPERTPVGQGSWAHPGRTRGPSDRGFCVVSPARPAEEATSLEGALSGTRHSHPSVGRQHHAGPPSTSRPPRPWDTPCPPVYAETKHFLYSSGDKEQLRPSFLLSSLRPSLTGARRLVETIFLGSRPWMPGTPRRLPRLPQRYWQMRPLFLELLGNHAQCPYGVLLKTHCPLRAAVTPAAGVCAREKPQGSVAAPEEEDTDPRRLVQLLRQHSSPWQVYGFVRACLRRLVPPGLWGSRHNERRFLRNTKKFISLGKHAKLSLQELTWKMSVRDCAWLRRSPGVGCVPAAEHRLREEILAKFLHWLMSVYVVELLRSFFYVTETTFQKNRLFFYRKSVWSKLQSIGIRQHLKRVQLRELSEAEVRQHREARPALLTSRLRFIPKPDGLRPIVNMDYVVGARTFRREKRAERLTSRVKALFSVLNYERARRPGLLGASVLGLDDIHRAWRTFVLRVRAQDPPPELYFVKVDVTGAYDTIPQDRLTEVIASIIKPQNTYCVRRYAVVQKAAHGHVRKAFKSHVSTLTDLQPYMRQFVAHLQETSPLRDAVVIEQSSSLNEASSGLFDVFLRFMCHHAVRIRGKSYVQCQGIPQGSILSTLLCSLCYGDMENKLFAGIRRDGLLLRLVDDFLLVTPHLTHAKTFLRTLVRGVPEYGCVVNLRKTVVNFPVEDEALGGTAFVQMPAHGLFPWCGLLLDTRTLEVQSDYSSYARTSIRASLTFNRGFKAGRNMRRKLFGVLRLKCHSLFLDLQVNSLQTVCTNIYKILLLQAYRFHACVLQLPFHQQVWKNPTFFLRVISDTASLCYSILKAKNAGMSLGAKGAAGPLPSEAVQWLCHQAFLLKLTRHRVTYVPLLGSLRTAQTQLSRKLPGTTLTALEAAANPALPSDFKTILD

**Q.** For `O=C1NC(=O)/C(=C/c2ccc(-c3nc4cc(Cl)c(Cl)cc4[nH]3)cc2)S1` [Example 1, 5,6-Dichloro-2-[4-[(2,4-dioxothiazolidin-5-ylidene)methyl]phenyl]benzimidazole], which IC50 is on record?
**A.** 1860 nM and 1100 nM and 1220 nM and 850 nM and 1140 nM

**Q.** `O=C1NC(=O)/C(=C/c2ccc(-c3nc4c(C(F)(F)F)cc(Cl)cc4[nH]3)cc2)S1` [Example 5, 6-Chloro-2-[4-[(2,4-dioxothiazolidin-5-ylidene)methyl]phenyl]-4-(trifluoromethyl)benzimidazole] was tested. Which IC50 did it give?
**A.** 4980 nM and 2950 nM

**Q.** Which IC50 does the source give for `O=C1NC(=O)/C(=C/c2ccc(-c3nc4cc(C(=O)c5ccccc5)ccc4[nH]3)cc2)S1` [Example 6, 5-Benzoyl-2-[4-[(2,4-dioxothiazolidin-5-ylidene)methyl]phenyl]benzimidazole] here?
**A.** 3040 nM and 3350 nM

**Q.** Which IC50 does the source give for `O=C1NC(=O)/C(=C/c2ccc(-c3nc4ccccc4[nH]3)cc2)S1` [Example 2, 2-[4-[(2,4-Dioxothiazolidin-5-ylidene)methyl]phenyl]benzimidazole] here?
**A.** 1050 nM and 1520 nM

**Q.** With `O=C1NC(=O)C(Cc2ccc(-c3nc4cc(Cl)c(Cl)cc4[nH]3)cc2)S1` (stereo not shown) [Example 28, 2-[4-[(2,4-Dioxothiazolidin-5-yl)methyl]phenyl]-5,6-dichlorobenzimidazole] as the molecule, how does the IC50 read?
**A.** 14500 nM and 15000 nM

**Q.** For `O=C1NC(=O)/C(=C/c2ccc(-c3nc4cc(Cl)c(Cl)cc4[nH]3)s2)S1` [Example 32, 5,6-Dichloro-2-[2-[(2,4-dioxothiazolidin-5-ylidene)methyl]thiophen-5-5-yl]benzimidazole], which IC50 is on record?
**A.** 1960 nM and 1910 nM

**Q.** With `CN(C)CCn1c(-c2ccc(/C=C3\SC(=O)NC3=O)cc2)nc2cc(Cl)c(Cl)cc21` [Example 21, 5,6-Dichloro-1-(2-dimethyaminoethyl)-2-[4-[(2,4-dioxothiazolidin-5-ylidene)methyl]phenyl]benzimidazole] as the molecule, how does the IC50 read?
**A.** 19200 nM and 15900 nM

**Q.** How did the IC50 turn out when `Cc1cc2nc(-c3ccc(/C=C4\SC(=O)NC4=O)cc3)[nH]c2cc1C` [Example 3, 5,6-Dimethyl-2-[4-[(2,4-dioxothiazolidin-5-ylidene)methyl]phenyl]benzimidazole] was run?
**A.** 5440 nM and 6200 nM

**Q.** `CCOC(=O)Cn1c(-c2ccc(/C=C3\SC(=O)NC3=O)cc2)nc2cc(Cl)c(Cl)cc21` [Example 20, Ethyl [5,6-Dichloro-2-[4-[(2,4-dioxothiazolidin-5-ylidene)methyl]phenyl]-benzimidazol-1-yl]acetate] was tested. Which IC50 did it give?
**A.** 2280 nM and 3260 nM

**Q.** How did the IC50 turn out when `Cn1c(/C=C2\SC(=O)NC2=O)ccc1-c1nc2cc(Cl)c(Cl)cc2[nH]1` [Example 33, 2-[2-[(2,4-Dioxothiazolidin-5-ylidene)methyl]-1-methylpyrrol-5-yl]-5,6-dichlorobenzimidazole] was run?
**A.** 3180 nM and 2470 nM

**Q.** How did the IC50 turn out when `O=C1NC(=O)/C(=C/c2cc3cc(-c4nc5cc(Cl)c(Cl)cc5[nH]4)ccc3[nH]2)S1` [Example 46, 5,6-Dichloro-2-[2-[(2,4-dioxothiazolidin-5-ylidene)methyl]indol-5-yl]benzimidazole] was run?
**A.** 5400 nM

**Q.** `Cc1cc2nc(-c3ccc(/C=C4\SC(=O)NC4=O)cc3)n(Cc3ccc(Cl)c(Cl)c3)c2cc1C` [Example 15, 1-(3,4-Dichlorobenzyl)-5,6-dimethyl-2-[4-[(2,4-dioxothiazolidin-5-ylidene)methyl]phenyl]benzimidazole] was tested. Which IC50 did it give?
**A.** 3010 nM and 2430 nM

**Q.** How did the IC50 turn out when `O=C1NC(=O)/C(=C/c2ccc(-c3nc4cc(Cl)c(Cl)cc4[nH]3)o2)S1` [Example 30] was run?
**A.** 5190 nM and 2760 nM

**Q.** With `O=C1NC(=O)/C(=C/c2ccc3[nH]c(-c4nc5cc(Cl)c(Cl)cc5[nH]4)cc3c2)S1` [Example 45, 5,6-Dichloro-2-[5-[(2,4-dioxothiazolidin-5-ylidene)methyl]indol-2-yl]benzimidazole] as the molecule, how does the IC50 read?
**A.** 610 nM

**Q.** `O=C1NC(=O)/C(=C/c2ccc(-c3nc4cc(Cl)c(Cl)cc4[nH]3)c3ccccc23)S1` [Example 39, 5,6-Dichloro-2-[4-[(2,4-dioxothiazolidin-5-ylidene)methyl]naphth-1-yl]benzimidazole] was tested. Which IC50 did it give?
**A.** 440 nM and 920 nM and 1010 nM

**Q.** `O=C1NC(=O)/C(=C/c2ccc3cc(-c4nc5cc(Cl)c(Cl)cc5[nH]4)ccc3c2)S1` [Example 40, 5,6-Dichloro-2-[6-[(2,4-dioxothiazolidin-5-ylidene)methyl]naphth-2-yl]benzimidazole] was tested. Which IC50 did it give?
**A.** 290 nM and 550 nM and 510 nM

**Q.** Which IC50 does the source give for `O=C1NC(=O)/C(=C/c2ccc(-c3nc4ccccc4n3Cc3ccc(Cl)c(Cl)c3)cc2)S1` [Example 14, 1-(3,4-Dichlorobenzyl)-2-[4-[(2,4-dioxothiazolidin-5ylidene)methyl]-phenyl]benzimidazole] here?
**A.** 1610 nM and 1920 nM

**Q.** `O=C1NC(=O)/C(=C/c2ccc(-c3nc4cc([N+](=O)[O-])ccc4[nH]3)cc2)S1` [Example 4, 2-[4-[(2,4-Dioxothiazolidin-5-ylidene)methyl]phenyl]-5-nitrobenzimidazole] was tested. Which IC50 did it give?
**A.** 4300 nM and 3690 nM

**Q.** Which IC50 does the source give for `O=C1NC(=O)/C(=C/c2cc(Br)c(-c3nc4cc(Cl)c(Cl)cc4[nH]3)s2)S1` [Example 29, 5,6-Dichloro-2-[3-bromo-5-[(2,4-dioxothiazolidin-5-ylidene)methyl]thiophen-2-yl]benzimidazole] here?
**A.** 1890 nM and 2260 nM
